Experiment [1] addresses T1, UDP-galactopyranose mutase (BcUGM) (Botrytis cinerea, UniProt A0A384JG93).
T1 construct: gene BCIN_05g00580
The experiment in a line: enzyme kinetics with purified recombinant BcUGM, varying UDP-Galp, HPLC-UV and LC-MS product detection. The experiment is classed as biochemical.

For experiment [2], the target named is T1, UDP-galactopyranose mutase (BcUGM). As to the kind of experiment: product of purified recombinant BcUGM detected by HILIC and LC-MS/MS. The experiment is classed as biochemical.

T1 sequence (A0A384JG93 entry or part of it): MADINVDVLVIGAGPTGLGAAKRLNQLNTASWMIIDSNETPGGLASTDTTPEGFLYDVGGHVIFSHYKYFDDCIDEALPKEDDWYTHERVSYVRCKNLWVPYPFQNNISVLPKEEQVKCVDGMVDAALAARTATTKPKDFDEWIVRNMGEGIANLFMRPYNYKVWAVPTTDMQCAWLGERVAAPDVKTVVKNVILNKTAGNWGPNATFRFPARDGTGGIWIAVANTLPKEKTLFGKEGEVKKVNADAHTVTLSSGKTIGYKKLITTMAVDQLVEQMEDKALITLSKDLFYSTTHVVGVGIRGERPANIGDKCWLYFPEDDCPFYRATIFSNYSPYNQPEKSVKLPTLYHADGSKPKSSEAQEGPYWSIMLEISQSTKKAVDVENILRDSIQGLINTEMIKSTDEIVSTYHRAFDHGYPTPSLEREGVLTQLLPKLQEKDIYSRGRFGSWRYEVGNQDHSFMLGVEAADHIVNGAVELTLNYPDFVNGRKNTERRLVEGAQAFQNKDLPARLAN

What is called Ki is the equilibrium dissociation constant of an inhibitor or competing ligand from its target. Consider `C[C@H]1O[C@H](OP(=O)(O)OP(=O)(O)OC[C@H]2O[C@@H](n3ccc(=O)[nH]c3=O)[C@H](O)[C@@H]2O)[C@H](O)[C@@H](O)C1=O` [UDP-KDG], for which, in experiment [1], the Ki was determined as 222 µM. As to `O=c1ccn([C@@H]2O[C@H](COP(=O)(O)OP(=O)(O)O[C@H]3O[C@@H]([C@H](O)CO)[C@H](O)[C@H]3O)[C@@H](O)[C@H]2O)c(=O)[nH]1` [UDP-galactofuranose], the “product of purified recombinant BcUGM detected by HILIC and LC-MS/MS” value in experiment [2] was “transforming UDP-galactopyranose to UDP-galactofuranose in the presence of NADPH and flavin adenine dinucleotide (FAD)”.

Values taken from article PMC5698552 (mBio, 2017).
